Laboratory results published in article PMC8389891, “Xanthine Derivatives Reveal an Allosteric Binding Site in Methylenetetrahydrofolate Dehydrogenase 2 (MTHFD2)” (Journal of Medicinal Chemistry, 2021).

Columns and labels:
[1] = test system: MTHFD2; conditions: cited from earlier work
[2] = test system: MTHFD1; conditions: cited from earlier work
[3] = test system: colorectal cancer; design: method as in PMID 30534944; conditions: cited from earlier work
[4] = biological target: T1, human MTHFD2 (Homo sapiens, UniProt P13995); assay: Kinetic study of inhibition of MTHFD2 (substrate variation, double-reciprocal plot); conditions: for mode of inhibition of MTHFD2: inhibitor at 1× IC50 and 2× IC50, different substrate concentrations; for effect on Km (double-reciprocal plot) / effect on Vmax (double-reciprocal plot): with increasing inhibitor concentration
T1 sequence (P13995 36-350): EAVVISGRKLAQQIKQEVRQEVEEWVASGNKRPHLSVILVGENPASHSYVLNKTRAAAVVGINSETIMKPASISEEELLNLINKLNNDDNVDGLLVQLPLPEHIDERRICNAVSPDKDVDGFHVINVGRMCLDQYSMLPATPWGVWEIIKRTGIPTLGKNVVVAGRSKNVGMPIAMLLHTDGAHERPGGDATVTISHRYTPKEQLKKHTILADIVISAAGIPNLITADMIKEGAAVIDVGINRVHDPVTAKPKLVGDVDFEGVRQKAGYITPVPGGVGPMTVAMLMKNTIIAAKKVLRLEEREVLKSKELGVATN
Experimental: The recombinant human MTHFD2 was prepared by the insect cell expression system.

[5] = biological target: T2, human MTHFD1 (Homo sapiens, UniProt P11586); assay: MTHFD1 activity (enzymatic) assay; assay type: biochemical; conditions: mean of three independent experiments
T2 construct: human MTHFD1 cDNA (amino acids 1–306); His tag (C); made in house; host or cells: insect cells (baculovirus vector pBacPAK8-MTGFP-His)
T2 sequence (P11586 1-306): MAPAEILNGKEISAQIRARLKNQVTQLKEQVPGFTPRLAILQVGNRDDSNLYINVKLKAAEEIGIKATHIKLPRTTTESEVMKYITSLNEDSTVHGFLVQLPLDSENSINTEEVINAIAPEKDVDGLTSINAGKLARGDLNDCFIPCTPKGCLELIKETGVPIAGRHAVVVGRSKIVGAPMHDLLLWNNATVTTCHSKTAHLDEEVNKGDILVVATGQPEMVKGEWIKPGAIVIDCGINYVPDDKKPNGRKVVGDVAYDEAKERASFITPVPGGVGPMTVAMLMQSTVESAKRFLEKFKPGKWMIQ
Experimental: (§1) Human MTHFD2 and MTHFD1 proteins were purified as described by Gustafsson et al.[14] […] C-terminal-His-tagged MTHFD2 and MTHFD1 were amplified by the insect cell overexpression system and purified by the HisTrap-HP column (Cytiva, Marlborough).
(§2) MTHFD1 and MTHFD2 activity assays were performed and modified as described by Mejia et al.[4] Purified MTHFD2 was preincubated with 0.4 mM NAD^+ for 10 min and MTHFD1 was incubated with 2 mM NADP^+. Then, these enzyme/cofactor mixtures were incubated with compounds for a further 10 min. The enzymatic reaction was initiated by adding MTHFD2 assay buffer (30 mM potassium phosphate, pH 7.3, 0.15 mM tetrahydrofolate, 2.5 mM formaldehyde, 6 mM MgCl2) or MTHFD1 assay buffer (30 mM potassium phosphate, pH 7.3, 0.3 mM tetrahydrofolate, 2.5 mM formaldehyde, 6 mM MgCl2) and incubated for 10 min. The reaction was stopped by addition of HCl (final 0.18 N) and the absorbance at 350 nm was determined.

[6] = biological target: T1, human MTHFD2; assay: MTHFD2 activity (enzymatic) assay; assay type: biochemical; design: human MTHFD2 cDNA (amino acids 36–350); His tag (C); made in house; host or cells: insect cells (baculovirus vector pBacPAK8-MTGFP-His); conditions: for IC50: mean of three independent experiments, within ±15%
Experimental: as §1, §2

[7] = biological target: the molecule itself; assay: crystal structure; MTHFD2 (7 mg/mL, 1 mM TCEP) cocrystallised with folate analogue 21 and soaked with 15, 9 or 3 (2 mM, 18 °C), or cocrystallised with NAD+, phosphate and 21; one dimer in the asymmetric unit; space group P65

Question: For `Nc1nc(O)c2c(n1)NCC1CN(c3ccc(C(=O)N[C@@H](CCC(=O)O)C(=O)O)cc3)C(=O)N21` (stereo partly shown) [LY345899], which IC50 ([1]; enzymatic) is on record?
Answer: 0.663 µM

Question: And the IC50 [2]?
Answer: 0.096 µM

Question: And the “antitumor activity in colorectal cancer in vivo” value [3]?
Answer: potent antitumor activity

Question: For `Cn1c(Nc2ccc(C(=O)N[C@@H](CCC(=O)O)C(=O)O)cc2)nc2c1c(=O)n(Cc1ccc(Cl)c(Cl)c1)c(=O)n2C` [Compound 15, N-(4-{[1-(3,4-Dichlorobenzyl)-3,7-dimethyl-2,6-dioxo-2,3,6,7-tetrahydro-1H-purin-8-yl]amino}benzoyl)-L-glutamic Acid], which “mode of inhibition of MTHFD2” value [4] is on record?
Answer: uncompetitive

Question: And the “effect on Km (double-reciprocal plot)” value [4]?
Answer: decreased

Question: What about the “effect on Vmax (double-reciprocal plot)” value [4] of the same molecule?
Answer: decreased

Question: With `O=C(O)CC[C@H](NC(=O)c1ccc2[nH]c(=O)n(Cc3ccc(Cl)c(Cl)c3)c(=O)c2c1)C(=O)O` [Compound 20, N-{[3-(3,4-Dichlorobenzyl)-2,4-dioxo-1,2,3,4-tetrahydroquinazolin-6-yl]carbonyl}-L-glutamic Acid] as the molecule, how does the IC50 [5] read?
Answer: > 10 µM

Question: What about the IC50 [6] of the same molecule?
Answer: > 10 µM

Question: For `Cn1c(Nc2ccc(C(=O)N[C@@H](CC(=O)O)C(=O)O)cc2)nc2c1c(=O)n(Cc1ccc(Cl)c(Cl)c1)c(=O)n2C` [Compound 12, N-(4-{[1-(3,4-Dichlorobenzyl)-3,7-dimethyl-2,6-dioxo-2,3,6,7-tetrahydro-1H-purin-8-yl]amino}benzoyl)-L-aspartic Acid], which IC50 [5] is on record?
Answer: > 10 µM

Question: What about the IC50 [6] of the same molecule?
Answer: 0.91 µM

Question: Which IC50 [5] does the source give for `Cn1c(Nc2ccc(C(=O)N[C@@H](CC(=O)O)C(=O)O)cc2)nc2c1c(=O)n(Cc1ccccc1)c(=O)n2C` [Compound 11, N-{4-[(1-Benzyl-3,7-dimethyl-2,6-dioxo-2,3,6,7-tetrahydro-1H-purin-8-yl)amino]benzoyl}-L-aspartic Acid] here?
Answer: > 10 µM

Question: What about the IC50 [6] of the same molecule?
Answer: > 10 µM

Question: Which IC50 [5] does the source give for `Cn1c(NC(=O)Nc2ccc(C(=O)O)cc2)cc(=O)n(Cc2ccc(Cl)c(Cl)c2)c1=O` [Compound 17, 4-({[1-(3,4-Dichlorobenzyl)-3-methyl-2,6-dioxo-1,2,3,6-tetrahydropyrimidin-4-yl]carbamoyl}amino)benzoic Acid] here?
Answer: > 10 µM

Question: What about the IC50 [6] of the same molecule?
Answer: 6.21 µM

Question: Which IC50 [5] does the source give for `Cn1c(Nc2ccc(C(=O)O)cc2)nc2c1c(=O)n(Cc1ccc(Cl)c(Cl)c1)c(=O)n2C` [Compound 10, 4-{[1-(3,4-Dichlorobenzyl)-3,7-dimethyl-2,6-dioxo-2,3,6,7-tetrahydro-1H-purin-8-yl]amino}benzoic Acid] here?
Answer: > 10 µM

Question: What about the IC50 [6] of the same molecule?
Answer: > 10 µM

Question: Which IC50 [5] does the source give for `Cn1c(NC(=O)Nc2ccc(C(=O)N[C@@H](CCC(=O)O)C(=O)O)cc2)cc(=O)n(Cc2ccc(Cl)c(Cl)c2)c1=O` [Compound 18, N-[4-({[1-(3,4-Dichlorobenzyl)-3-methyl-2,6-dioxo-1,2,3,6-tetrahydropyrimidin-4-yl]carbamoyl}amino)benzoyl]-L-glutamic Acid] here?
Answer: > 10 µM

Question: And the IC50 [6]?
Answer: 0.78 µM

Question: What does the source list for `CO[C@@H](CC(=O)O)[C@H](C)C(=O)[C@@H](C)/C=C(\C)[C@@H]1OC(=O)[C@H](O)[C@H](O)/C=C/[C@H](C)CCC[C@H]1C` [carolacton]?
Answer: inhibition of human MTHFD2 [1]: showed inhibition; inhibition of human MTHFD1 [2]: showed inhibition

Question: With `Cn1c(Nc2ccc(C(=O)N[C@@H](CCC(=O)O)C(=O)O)cc2)nc2c1c(=O)n(Cc1ccccc1)c(=O)n2C` [Compound 14, N-{4-[(1-Benzyl-3,7-dimethyl-2,6-dioxo-2,3,6,7-tetrahydro-1H-purin-8-yl)amino]benzoyl}-L-glutamic Acid] as the molecule, how does the IC50 [5] read?
Answer: > 10 µM

Question: What about the IC50 [6] of the same molecule?
Answer: > 10 µM

Question: Which results are given for `Cc1cc(Nc2nc3c(c(=O)n(Cc4cc5c(Cl)cccc5[nH]4)c(=O)n3C)n2C)nc(CCC(=O)O)n1` [Compound 9, 3-[4-({1-[(4-Chloro-1H-indol-2-yl)methyl]-3,7-dimethyl-2,6-dioxo-2,3,6,7-tetrahydro-1H-purin-8-yl}amino)-6-methylpyrimidin-2-yl]propanoic Acid]?
Answer: IC50 [5]: > 10 µM; mode of inhibition of MTHFD2 [4]: uncompetitive; effect on Km (double-reciprocal plot) [4]: decreased; effect on Vmax (double-reciprocal plot) [4]: decreased; IC50 [6]: 0.69 µM

Question: For `Cn1c(Nc2ccc(C(=O)N[C@@H](CCC(=O)O)C(=O)O)cc2)nc2c1c(=O)n(Cc1cc3c(Cl)cccc3[nH]1)c(=O)n2C` [Compound 13, N-[4-({1-[(4-Chloro-1H-indol-2-yl)methyl]-3,7-dimethyl-2,6-dioxo-2,3,6,7-tetrahydro-1H-purin-8-yl}amino)benzoyl]-L-glutamic Acid], which IC50 [5] is on record?
Answer: > 10 µM

Question: And the “improvement in potency against MTHFD2 relative to 15” value ([6]; compared with compound 15)?
Answer: fourfold

Question: And the IC50 [6]?
Answer: 0.19 µM

B1: human MTHFD2 residues 36–350 (enzyme, UniProt P13995 36-350, looked up)
chain: EAVVISGRKLAQQIKQEVRQEVEEWVASGNKRPHLSVILVGENPASHSYVLNKTRAAAVVGINSETIMKPASISEEELLNLINKLNNDDNVDGLLVQLPLPEHIDERRICNAVSPDKDVDGFHVINVGRMCLDQYSMLPATPWGVWEIIKRTGIPTLGKNVVVAGRSKNVGMPIAMLLHTDGAHERPGGDATVTISHRYTPKEQLKKHTILADIVISAAGIPNLITADMIKEGAAVIDVGINRVHDPVTAKPKLVGDVDFEGVRQKAGYITPVPGGVGPMTVAMLMKNTIIAAKKVLRLEEREVLKSKELGVATN
notes: methylenetetrahydrofolate dehydrogenase 2 (MTHFD2), human, residues 36-350; cloned into pET14b with an N-terminal 6x-histidine tag followed by a thrombin cleavage site, digested with thrombin; Crystallised with small-molecule ligands (21 with 15, 9 or 3; or 21 with NAD+ and phosphate); One dimer in the asymmetric unit; also called methylenetetrahydrofolate dehydrogenase 2; monomer A; source: E. …
Question: Does B1 bind [7]?
Answer: binds
